“And” between values parts separate entries of the source, which are not always exact repeats. Equal entries are not always repeated. Where two headings read alike, the source gives them in different places.

Data set [1] deals with T1, HIV-1 RT-associated RNase H (Human immunodeficiency virus type 1 group M subtype B, UniProt P03366). The data set can be described thus: HIV-1 RT-associated RNase H inhibition assay. The data set is classed as biochemical. Set-up: 50 nM of HIV-1 RT. The settings on record: for IC50: 50 nM HIV-1 RT, 15 min at 37 °C, triplicate. As to the method:
HIV-1 RT-associated RNase H inhibition assays were carried out in a 384 multiwell format, in 30 µL reaction volume containing 50 mM Tris–HCl buffer pH 7.8, 6 mM MgCl2, 1 mM dithiothreitol (DTT), 80 mM KCl, 0.25 µM hybrid RNA/DNA 5’-[…]-Fluorescin-3’ 5’-Dabcyl-[…]-3’ increasing concentrations of inhibitor, whose dilutions were made in DMSO, and 50 nM of HIV-1 RT. The reaction mixture was incubated for 15 min at 37 °C and products were measured with a multilabel counter plate reader VictorNivo5 (PerkinElmer, Waltham, MA, USA) equipped with filters for 490/528 nm. IC50, the concentration able to inhibit 50% of enzymatic activity, was calculated by non-linear regression curve fit using Prisme v9.0. All experiments were conducted in triplicate.

The subject of data set [2] is SARS-CoV-2. Put plainly: microbe, parasite or virus in culture. In kind it is cell-based. Conditions: for EC50: Severe acute respiratory syndrome coronavirus 2, in the presence of 2 µM CP-100356, read-out: EC50 for viral replication inhibition; for EC50 / Inhibitory activity against SARS-CoV-2 replication (in words): VEROE6-EGFP cells; for Inhibitory activity against SARS-CoV-2 replication (in words): with CP-100356.

The nature of data set [3]: in vitro. The settings on record: African green monkey.
For data set [4], the system named is HIV-1. In kind it is cell-based. The settings on record: for Antiviral effect, reduction of GFP fluorescence expression (in words): MT4 cells, FACS.
Data set [5] relates to HIV-1. Put plainly: HIV-1 infectivity in HelaP4 cells (CPRG assay). The data set is classed as cell-based. The settings on record: for Reduction of HIV-1 infectivity: at highest non-toxic concentration, 48 h.
Data set [6] relates to HelaP4 cells. The data set can be described thus: Toxicity to HelaP4 cells (MTT assay). In kind it is cell-based. As to the method:
HelaP4 cells (10^4 cells/well) were infected with viruses (7.5 ng p24) in the presence of increasing concentration of compounds. Cells were incubated for 48 h before analysis. β-Galactosidase is under the control of the HIV-1 LTR. Infectivity is correlated with the number of infected cells. Cells were lysed for 10 min at 37 °C using 80 µL of lysis buffer (Na2HPO4 60 mM, NaH2PO4 60 mM, KCl 10 mM, MgSO4 10 mM, EDTA 25 mM, and NP-40 0.125%). After lysis, 170 µL of CPRG buffer (phosphate buffer 100 mM, pH 7.4, MgCl2 100 mM, and CPRG 20 mM) was added to each well. The plates were incubated at 37 °C until the color changed to dark red. Finally, a plate reader was used to read the absorbance at 572 nm. The MTT assay varies based on NAD(P)H-dependent cellular oxidoreductase enzymes of viable cells reducing the yellow tetrazolium salt MTT (3-(4,5-dimethylthiazol2-yl)-2,5-diphenyltetrazolium bromide). Spectrophotometric measurement can be used to quantify the insoluble purple formazan product that is produced by this reaction. An amount of 10 µL of MTT reagent (7.5 mg/mL in PBS, pH 7.4) was added to each well of the microtiter plate before incubating at 37 °C for 2 h. After 2 h of incubation, 100 µL of MTT lysis buffer (SDS 10%, HCl 0.01 N, pH 4.7) was added and the resulting optical density (OD) readings were measured at 572 nm.
A general note: Tetrazolium dyes change colour on reduction, which living cells bring about.

Data set [7] deals with HIV-1 viral DNA. Put plainly: qPCR of total HIV-1 viral DNA in infected MT4 cells. The settings on record: 30 µM. In kind it is cell-based. On the procedure: At the same time point, cells were harvested and washed with PBS before centrifugation to form pellets. DNA extraction was carried out using the QIAamp DNA Blood Mini Kit (Qiagen, Hilden, Germany). The procedure involved lysing the cells with AL buffer and Proteinase K to release the DNA. The lysate was then mixed with ethanol to facilitate DNA binding to a silica-based membrane in a spin column. The bound DNA was washed with buffers AW1 and AW2 to remove contaminants, and, finally, the DNA was eluted in 100 μL of water. DNA quantification was performed using quantitative polymerase chain reaction (qPCR) with the Roche LightCycler instrument. Accordingly, DNA quantification was conducted using real-time PCR (qPCR) on the same apparatus. This analysis utilized nucleic acid amounts corresponding to approximately 200,000 cells. The sequences of primers and probes employed for qPCR, aimed at absolute quantification of total HIV-1 viral DNA, have been previously described. The copy numbers of total HIV-1 DNA were ascertained from calibration curves derived from amplifying known quantities of cloned DNA with matching sequences.
For orientation: Real-time PCR tracks product formation cycle by cycle.

The test system of data set [8] is MT4 cells. The data set can be described thus: Toxicity ZombieAqua test in MT4 cells. In kind it is cell-based. Conditions: 30 µM, Zombie Aqua.
Description: MT4 cells (10^5 cells/well) were infected with viruses (100 ng/well) in the presence of increasing concentration of lawsone compounds and the positive control efavirenz (Sigma-Aldrich, St. Louis, MO, USA). After 48 h, cells from each well were washed with PBS and centrifuged (1500 rpm, 5 min). Then, cells were incubated with Zombie Aqua™ (Biolegend, San Diego, CA, USA) dye solution for 15 min in the dark at room temperature to stain dead cells. After that, the cell pellets were washed one more time with PBS before analysis by flow cytometer. Acquisition was performed on a FACS Celesta (BD Biosciences) and analysis was performed using FlowJo v10 software. Cells were first gated on the FSC-H and FSC-A parameters to exclude doublet cells. Then, living cells were selected according to the Zombie Acqua staining (dead cells are stained whereas living cells are not). Finally, the percentage of HIV-1infected cells was measured by analyzing the percentage of GFP+ cells among living cells.
Data set [9] concerns the target T1, HIV-1 RT-associated RNase H. Conditions: negative control; ref Min et al. [33]; cited from earlier work.
The mark [10] stands for this setting: read-out: IC50, HIV-1 RT-associated RNase H activity.
The mark [11] stands for this setting: IC50, HIV-1 RT-associated RNase H activity.

By IC50 is commonly meant the concentration at which inhibition is half-maximal. Take `CCCCCCCNC(C1=C(O)C(=O)c2ccccc2C1=O)c1ccccn1` (stereo not shown) [Compound 1a]: the 50% inhibitory concentration (IC50) in data set [1] (setting [10]) turned out to be 31.2 ± 6.5 µM.
The same measure, in the same setting: the result for `CCCCCCCCCCCCNC(C1=C(O)C(=O)c2ccccc2C1=O)c1ccccn1` (stereo not shown) [Compound 1b] reads 4 to 4.4 µM and 4.4 µM; that for `CCCCCCCCCCCCCCNC(C1=C(O)C(=O)c2ccccc2C1=O)c1ccccn1` (stereo not shown) [Compound 1c], 4 to 4.4 µM and 4 µM; that for `CCCCCCCCCCCCCCCCNC(C1=C(O)C(=O)c2ccccc2C1=O)c1ccccn1` (stereo not shown) [Compound 1d], 10.7 ± 4.1 µM.
For orientation: EC50 means the concentration giving half of the maximal effect. Turning to `O=C1C(O)=C(C(NCc2ccccc2)c2ccccn2)C(=O)c2ccccc21` (stereo not shown) [Compound 1e], in data set [2], the “SI, selectivity index CC50/EC50” value is on record as 3.15; the EC50 was determined as 11.2 ± 2.1 µM; the “Inhibitory activity against SARS-CoV-2 replication (in words)” value is recorded as “moderate inhibitory activity”. In data set [3], the CC50 stood at 35.3 ± 1.3 µM. The IC50 in data set [1] (setting [11]) was 2.8 to 3.1 µM and 3.1 µM.
Regarding `O=C1C(O)=C(C(NCc2ccc(F)c(F)c2)c2ccccn2)C(=O)c2ccccc21` (stereo not shown) [Compound 1f], in data set [1] (setting [10]), the IC50 came to 17.4 ± 4.1 µM.
Consider `CCCCCCCCCCCCNC(C1=C(O)C(=O)c2ccccc2C1=O)c1cccc(Br)n1` (stereo not shown) [Compound 1g, 3-[(Dodecylamino)(6-bromo-2-pyridyl)methyl]-2-hydroxy-1,4-naphthoquinone], for which the IC50 in data set [1] (setting [10]) is over 100 µM.
Same read-out and setting: next, `CCCCCCCCCCCCCCNC(C1=C(O)C(=O)c2ccccc2C1=O)c1cccc(Br)n1` (stereo not shown) [Compound 1h, 3-[(Tetradecylamino)(6-bromo-2-pyridyl)methyl]-2-hydroxy-1,4-naphthoquinone]: over 100 µM.
For `CCCCCCCCCCCCCCCCNC(C1=C(O)C(=O)c2ccccc2C1=O)c1cccc(Br)n1` (stereo not shown) [Compound 1i, 3-[(Hexadecylamino)(6-bromo-2-pyridyl)methyl]-2-hydroxy-1,4-naphthoquinone], the IC50 in data set [1] (setting [10]) was determined as 78.6 ± 11.5 µM.
The same measure, in the same setting: next, `O=C1C(O)=C(C(NCc2ccccc2)c2cccc(Br)n2)C(=O)c2ccccc21` (stereo not shown) [Compound 1j, 3-[(Benzylamino)(6-bromo-2-pyridyl)methyl]-2-hydroxy-1,4-naphthoquinone]: over 100 µM; `CCCCCCCCCCCCCCNC(C1=C(O)C(=O)c2ccccc2C1=O)c1ccccc1` (stereo not shown) [Compound 2a]: 21.5 ± 0.9 µM.
On to `CCCCCCCCCCCCCCNC(C1=C(O)C(=O)c2ccccc2C1=O)c1ccccc1F` (stereo not shown) [Compound 2b, 3-[(Tetradecylamino)(2-fluorophenyl)methyl]-2-hydroxy-1,4-naphthoquinone], for which, in data set [4], the “Antiviral effect, reduction of GFP fluorescence expression (in words)” value (from here on “Antiviral effect, reduction”) is recorded as “no or weak antiviral effects”. Moreover, the IC50 in [1] (setting [10]) came out at 15 ± 5.1 µM. Moreover, in data set [5], the “Reduction of HIV-1 infectivity” value was 75%.
Take `CCCCCCCCCCCCCCNC(C1=C(O)C(=O)c2ccccc2C1=O)c1ccccc1Cl` (stereo not shown) [Compound 2c, 3-[(Tetradecylamino)(2-chlorophenyl)methyl]-2-hydroxy-1,4-naphthoquinone]: the “Antiviral effect, reduction” value in [4] is “no or weak antiviral effects”. The IC50 in [1] (setting [10]) is 7.3 ± 4.7 µM. Besides, the “Reduction of HIV-1 infectivity” value in data set [5] is 46%.
In the case of `CCCCCCCCCCCCNC(C1=C(O)C(=O)c2ccccc2C1=O)c1ccccc1O` (stereo not shown) [Compound 2d], the “Cytotoxicity (in words)” value in data set [6] was “displayed cytotoxicity”. In addition, the IC50 in data set [1] (setting [11]) was 17.6 ± 3.8 µM.
In the case of `CCCCCCCCCCCCCCNC(C1=C(O)C(=O)c2ccccc2C1=O)c1ccccc1O` (stereo not shown) [Compound 2e, 3-[(Tetradecylamino)(2-hydroxyphenyl)methyl]-2-hydroxy-1,4-naphthoquinone], the IC50 in data set [1] (setting [10]) stood at 8.5 ± 1.6 µM. Further, in data set [5], the “Antiviral activity against HIV-1 (in words)” value was “no antiviral activity”.
`CCCCCCCCCCCCCCCCNC(C1=C(O)C(=O)c2ccccc2C1=O)c1ccccc1O` (stereo not shown) [Compound 2f]: the “Cytotoxicity (in words)” value in data set [6] was “displayed cytotoxicity”. It took 7 ± 0.9 µM to reach half-maximal inhibition in data set [1] (setting [11]) (IC50).
As for `O=C1C(O)=C(C(NCc2ccccc2)c2ccccc2O)C(=O)c2ccccc21` (stereo not shown) [Compound 2g], in [1], the “HIV-1 RNase H inhibitory activity (in words)” value was “inactive”. The IC50 in data set [1] (setting [10]) is over 100 µM.
The matching figures for `O=C1C(O)=C(C(Nc2ccccn2)c2ccccc2O)C(=O)c2ccccc21` (stereo not shown) [Compound 2h]: “moderate activity” and 20.8 ± 0.2 µM.
Consider `CCCCCCCCCCCCNC(C1=C(O)C(=O)c2ccccc2C1=O)c1cc(Cl)cc(Cl)c1O` (stereo not shown) [Compound 2i], for which, in data set [4], the “Antiviral effect, reduction” value is “no or weak antiviral effects”. Besides, the IC50 in data set [1] (setting [10]) came to 4.7 ± 1.6 µM. Moreover, the “Reduction of HIV-1 infectivity” value in data set [5] turned out to be 65%.
For `CCCCCCCCCCCCCCNC(C1=C(O)C(=O)c2ccccc2C1=O)c1cc(Cl)cc(Cl)c1O` (stereo not shown) [Compound 2j, 3-[(Tetradecylamino)(3,5-dichloro-2-hydroxyphenyl)methyl]-2-hydroxy-1,4-naphthoquinone], the IC50 in data set [1] (setting [10]) came out at 43.7 ± 3.5 µM.
Consider `CCCCCCCCCCCCCCCCNC(C1=C(O)C(=O)c2ccccc2C1=O)c1cc(Cl)cc(Cl)c1O` (stereo not shown) [Compound 2k], for which, in data set [7], the “Reduction of viral DNA levels” value is listed as “over 50%”. In addition, in [2], the EC50 is over 41.2 µM and the “Inhibitory activity against SARS-CoV-2 replication (in words)” value is “inactive”. Besides, the “Toxicity (in words)” value in data set [8] is on record as “without exhibiting any toxicity”. The CC50 in data set [3] was determined as 41.2 ± 1.3 µM. Also, the “Reduction of percentage of GFP-positive cells” value in data set [4] is given as “half”. Further, the IC50 in data set [1] (setting [11]) was 2.8 to 3.1 µM and 2.8 µM.
Turning to `O=C1C(O)=C(C(NCc2ccccc2)c2cc(Cl)cc(Cl)c2O)C(=O)c2ccccc21` (stereo not shown) [Compound 2l, 3-[(Benzylamino)(3,5-dichloro-2-hydroxyphenyl)methyl]-2-hydroxy-1,4-naphthoquinone], in data set [4], the “Antiviral effect, reduction” value is “no or weak antiviral effects”. Besides, in data set [1], the “HIV-1 RNase H inhibitory activity (in words)” value was “moderate activities”. Moreover, the 50% inhibitory concentration (IC50) in data set [1] (setting [10]) was determined as 12.7 ± 3.4 µM. Also, in data set [5], the “Reduction of HIV-1 infectivity” value is reported as 48%.
Turning to `CCCCCCCCCCCCNC(C1=C(O)C(=O)c2ccccc2C1=O)c1cc(Br)cc(Br)c1O` (stereo not shown) [Compound 2m], the half-maximal inhibitory concentration (IC50) in data set [1] (setting [10]) amounted to 7.1 ± 1.1 µM. The “Antiviral activity against HIV-1 (in words)” value in data set [5] was “no antiviral activity”.
In the case of `CCCCCCCCCCCCCCNC(C1=C(O)C(=O)c2ccccc2C1=O)c1cc(Br)cc(Br)c1O` (stereo not shown) [Compound 2n, 3-[(Tetradecylamino)(3,5-dibromo-2-hydroxyphenyl)methyl]-2-hydroxy-1,4-naphthoquinone], in data set [1] (setting [10]), the IC50 amounted to 105 ± 10.6 µM.
With `CCCCCCCCCCCCCCCCNC(C1=C(O)C(=O)c2ccccc2C1=O)c1cc(Br)cc(Br)c1O` (stereo not shown) [Compound 2o], the half-inhibitory concentration (IC50) in [1] (setting [10]) amounted to 32.5 ± 10.5 µM.
`O=C1C(O)=C(C(NCc2ccccc2)c2cc(Br)cc(Br)c2O)C(=O)c2ccccc21` (stereo not shown) [Compound 2p, 3-[(Benzylamino)(3,5-dibromo-2-hydroxyphenyl)methyl]-2-hydroxy-1,4-naphthoquinone]: the “Antiviral effect, reduction” value in [4] is on record as “no or weak antiviral effects”. In addition, the “HIV-1 RNase H inhibitory activity (in words)” value in data set [1] is “moderate activities”. Moreover, the IC50 in [1] (setting [10]) was found to be 19.6 ± 3.4 µM. Besides, in [5], the “Reduction of HIV-1 infectivity” value was found to be 70%.
With `O=C1C=C(O)C(=O)c2ccccc21` [Lawsone, 2-Hydroxy-1,4-naphthoquinone], the “IC50, HIV-1 RT-associated RNase H activity” value in [9] is reported as over 100 µM.

(Values after article PMC11820915, “Identification of HIV-1 Reverse Transcriptase-Associated Ribonuclease H Inhibitors Based on 2-Hydroxy-1,4-naphthoquinone Mannich Bases” (Molecules, 2025).)
